Laboratory results: patent publication US6987121B2, “Compositions and methods for hepatoprotection and treatment of cholestasis” (SmithKline Beecham Corporation, priority 2002, dated 2006)

Legend:
[1] = system: bile duct-ligated (BDL) rats; experiment: Serum markers of liver function in bile duct-ligated (BDL) rats; assay type: in vivo, Sprague-Dawley rats; conditions: GW4064 100 mg/kg daily i.p. for 7 days
Description: (§1) Male Sprague-Dawley rats (approximately 300 grams) were obtained from Charles River Laboratories Inc (Raleigh, N.C.) and were maintained on a 12 hour light/12 hour dark light cycle. Animals were anesthetized by the administration of 2-3% isoflurane. Laparotomy was performed under sterile technique and the liver and duodenum gently displaced to reveal the common bile duct. The bile duct was separated from the surrounding tissue and two ligatures of 4-0 Ethilon were placed around it. The bile duct was clamped between the two ligatures with an aneurysm clamp and the ligatures drawn tight. An additional ligature was placed proximal to the first (near the liver). The clamp was removed and the bile duct severed between the ligatures. The muscle wall was closed with 4-0 Vicryl and the skin closed with staples. Animals were allowed to recover for 24 hours prior to administration of drug (GW4064, 100 mg/kg daily in corn oil/10% DMSO) or vehicle alone (in corn oil/10% DMSO) by a daily intra-peritoneal injection for 7 days prior to sacrifice. Animals were allowed food and water ad libitum throughout the study period. Animals were anesthetized with 2-3% isoflurane and sacrificed by cardiac puncture.
Serum levels of alanine aminotransferase (ALT), asparate aminotransferase (AST), total bilirubin (TBILI), and γ-glutamyl transferase (GGT) were determined using an Instrumentation Laboratory Ilab600 clinical chemistry analyzer. Serum bile acids (BILEA) were determined using a commercially available assay (Sigma Chemical Co., St Louis, Mo.).

[2] = system: bile duct-ligated (BDL) rats; experiment: Histological examination of liver samples from BDL rats; assay type: in vivo, Sprague-Dawley rats; conditions: GW4064 100 mg/kg daily i.p. for 7 days
Description: as §1
A section of the liver was removed and placed into 10% neutral buffered formalin. […]

CC(C)c1onc(-c2c(Cl)cccc2Cl)c1COc1ccc(/C=C/c2cccc(C(=O)O)c2)c(Cl)c1 [GW4064]
Liver function as defined by the panel of enzymes examined [1]: pronounced improvement in liver function
Serum level of ALT, as % of that in BDL rats receiving vehicle alone ([1]; corn oil/10% DMSO): 23%
Serum level of AST, as % of that in BDL rats receiving vehicle alone ([1]; corn oil/10% DMSO): 27%
Serum level of GGT, as % of that in BDL rats receiving vehicle alone ([1]; corn oil/10% DMSO): 34%
Serum level of TBILI, as % of that in BDL rats receiving vehicle alone ([1]; corn oil/10% DMSO): 49%
Liver histology: bile duct proliferation [2]: only bile duct proliferation
Liver histology: necrosis ([2]; vehicle-treated showed large areas of necrosis): no necrosis
